Experimental data published in US20130130299A1, “ELECT[…] CYTOMETRY” (University of Utah Research Foundation, priority 2009, published 2013).

Tested on: PC12 cells
Assay: Microchip amperometric detection of electrically evoked exocytotic catecholamine release
Assay type: cell-based, rat
Procedure: Cells were cultured in suspension in 75 mm^2 tissue culture flasks with RPMI 1640 (Invitrogen, Carlsbad, Calif.) cell culture media supplemented with 15% horse serum (Invitrogen), 2.5% fetal bovine serum (Invitrogen) and 0.02 mg/ml gentamicin (Invitrogen). Flasks were kept in an incubator at 37° C. with 5% CO2. Media was refreshed every 3-4 days, retaining 10% of the existing media each time. Cells were mechanically agitated to break up cell clusters through repeated washing through a pipettor tip. Additional separation was achieved through weekly, overnight treatment of the cells in 1 mM ethylene glycol tetraacetic acid (EGTA, Sigma-Aldrich, St. Louis, Mo.) with subsequent washing and trituration.
Prior to use, cells were transferred to Locke's buffer consisting of 154 mM NaCl, 5.6 mM KCl, 3.6 mM NaHCO3, 2.3 mM CaCl2, 5.6 mM glucose, and 5 mM Hepes (pH 7.4). An aliquot of the solution was immediately transferred to the MEMS device via manual pipette aspiration. […]
Neurotransmitter release from the PC12 cells was measured using a three electrode arrangement with a Au WE (FIGS. 3A and 3B, WE), a Au counter electrode (FIGS. 3A and 3B, CE) and silver/silver chloride (Ag/AgCl) reference electrode (RE) with all controlled by a NPI VA-10 potentiostat (National Precision Instruments (NPI), Tamm, Germany). […]

Row | SMILES | exocytosis activity after exposure to the actin-disrupting agent (population of PC12 cells exposed to cytochalasin-D, data not shown) | cube root of quantal yield (PC12 cells differentiated with 5 μM dexamethasone, n=209 cells, k=25,463 spikes, WE +700 mV vs Ag/AgCl) [zmol^1/3]
1 | C=C1[C@@H](C)[C@H]2[C@H](Cc3ccccc3)NC(=O)[C@]23[C@H](OC(C)=O)/C=C/[C@@](C)(O)C(=O)[C@@H](C)C/C=C/[C@H]3[C@@H]1O [cytochalasin-D] | did not block | –
2 | C[C@@H]1C[C@H]2[C@@H]3CCC4=CC(=O)C=C[C@]4(C)[C@@]3(F)[C@@H](O)C[C@]2(C)[C@@]1(O)C(=O)CO [dexamethasone] | – | 6.6±0.08
